The text below walks through data of patent US4784958A, “1,4-dihydropyridine derivatives and 1,4-dihydroquinoline derivatives radioactively labelled with ^125 I, their preparation, and their use in testing medicaments” (priority 1983, dated 1988).

One may read the IC50 as the concentration that gives 50% inhibition. As usually defined, the EC50 is the midpoint of the concentration-response curve.

Where two headings read alike, the source gives them in different places.

The target of data set [1] is T1, guinea-pig skeletal muscle membranes (1,4-dihydropyridine receptors / calcium channel) (Cavia porcellus, UniProt A0A286X7I0).
T1 construct: membrane fractions from guinea-pig brain, cardiac muscle and skeletal muscle; from tissue; host or cells: guinea-pig skeletal muscle membranes
T1 sequence (A0A286X7I0 1-1867): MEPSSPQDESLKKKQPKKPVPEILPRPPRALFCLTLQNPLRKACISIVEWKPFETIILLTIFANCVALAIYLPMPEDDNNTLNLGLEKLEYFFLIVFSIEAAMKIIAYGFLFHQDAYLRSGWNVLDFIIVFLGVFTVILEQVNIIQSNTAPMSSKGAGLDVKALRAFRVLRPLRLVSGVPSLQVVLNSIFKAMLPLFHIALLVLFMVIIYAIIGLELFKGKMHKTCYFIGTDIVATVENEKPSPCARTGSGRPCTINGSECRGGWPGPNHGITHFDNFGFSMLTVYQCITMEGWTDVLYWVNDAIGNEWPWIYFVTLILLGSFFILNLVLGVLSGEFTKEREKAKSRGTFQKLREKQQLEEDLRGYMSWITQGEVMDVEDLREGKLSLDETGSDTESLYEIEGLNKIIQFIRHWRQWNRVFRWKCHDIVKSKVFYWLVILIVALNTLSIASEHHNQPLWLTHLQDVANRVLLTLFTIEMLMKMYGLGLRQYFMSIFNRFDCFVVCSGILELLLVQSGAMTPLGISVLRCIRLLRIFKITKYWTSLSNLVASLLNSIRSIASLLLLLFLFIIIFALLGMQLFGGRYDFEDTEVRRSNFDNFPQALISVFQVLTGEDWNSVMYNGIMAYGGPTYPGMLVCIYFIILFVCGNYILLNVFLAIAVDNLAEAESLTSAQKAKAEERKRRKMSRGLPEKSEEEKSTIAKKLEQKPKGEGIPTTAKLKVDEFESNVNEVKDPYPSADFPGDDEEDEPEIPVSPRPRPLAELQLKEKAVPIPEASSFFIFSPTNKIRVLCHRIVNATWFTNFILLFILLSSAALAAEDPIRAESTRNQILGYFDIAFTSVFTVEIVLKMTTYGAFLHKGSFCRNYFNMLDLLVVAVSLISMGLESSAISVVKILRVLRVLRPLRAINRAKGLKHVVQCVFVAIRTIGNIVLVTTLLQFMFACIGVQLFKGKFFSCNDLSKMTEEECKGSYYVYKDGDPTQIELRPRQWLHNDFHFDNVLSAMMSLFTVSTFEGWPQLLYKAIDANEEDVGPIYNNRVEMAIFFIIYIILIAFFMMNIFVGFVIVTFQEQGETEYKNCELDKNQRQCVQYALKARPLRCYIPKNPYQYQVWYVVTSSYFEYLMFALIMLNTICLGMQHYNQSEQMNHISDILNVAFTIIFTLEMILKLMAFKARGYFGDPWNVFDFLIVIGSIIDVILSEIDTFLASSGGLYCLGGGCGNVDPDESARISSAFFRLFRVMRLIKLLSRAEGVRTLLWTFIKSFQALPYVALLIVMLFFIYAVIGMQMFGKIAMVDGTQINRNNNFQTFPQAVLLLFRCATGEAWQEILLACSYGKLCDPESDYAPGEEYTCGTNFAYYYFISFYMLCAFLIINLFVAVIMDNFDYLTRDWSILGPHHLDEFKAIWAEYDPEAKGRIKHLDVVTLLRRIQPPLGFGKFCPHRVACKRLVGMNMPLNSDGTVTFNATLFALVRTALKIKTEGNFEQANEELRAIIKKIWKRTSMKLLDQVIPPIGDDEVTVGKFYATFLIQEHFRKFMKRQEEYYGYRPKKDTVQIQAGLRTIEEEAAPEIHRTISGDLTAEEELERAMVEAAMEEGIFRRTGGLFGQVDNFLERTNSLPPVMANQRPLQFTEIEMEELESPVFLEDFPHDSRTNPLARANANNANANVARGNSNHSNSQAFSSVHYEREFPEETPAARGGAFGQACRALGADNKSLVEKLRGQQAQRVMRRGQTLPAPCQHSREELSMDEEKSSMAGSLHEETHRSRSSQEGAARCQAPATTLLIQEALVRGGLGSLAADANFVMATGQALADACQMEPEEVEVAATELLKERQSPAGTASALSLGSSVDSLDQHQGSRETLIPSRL
Description: Competition radioreceptor assay with the ^125 I-labelled 1,4-dihydropyridine of Example 2. Type of data set: binding. The procedure: In order to separate the free ligand from the bound ligand, 10% (w/v) polyethylene glycol 6000 was added to ice-cold 10 mM TRIS HCl buffer, pH 7.4, followed by 20 mM MgCl2 (3.5 ml), the sample was diluted, suction filtered in vacuo over a glass fibre filter, and the glass fibre filter was rewashed twice with 3.5 ml of the same buffer. The particle-bound radioactivity retained on the filters was then measured.
The data in Table 1 are mean values (±asymptotic standard deviation) from 3 independent experiments in which various calcium antagonists and derivatives or precursors of calcium antagonists were used as competitors with the ^125 I-labelled 1,4-dihydropyridine ("ligand") obtained in Example 2. Guinea-pig skeletal muscle membranes were used as receptor material. The concentration of the labelled ligand was 20-30 pmole/l and the experimental temperature was 25° C. 6 to 9 different concentrations of the checked substances were used (in each case as duplicate) and the measured binding data were optimally adapted by means of a computer program (DeLean A., Munson P. J., Rodbard D. (1978). Simultaneous analysis of families of sigmoid curves: application to bioassay, radioligand assay and physiological dose-response curves. Am J. Physiol. 4 E97-102). The stereospecifity of the binding for chiral 1,4-dihydropyridines was investigated as an important criterion for the receptor binding of the ^125 I-labelled 1,4-dihydropyridine in group 1. […] The EC50 value is the concentration of the substance stimulating a semi-maximum specific binding of the ligand.

The target in data set [2] is T2, skeletal muscle membranes (1,4-dihydropyridine receptors) (Cavia porcellus, UniProt A0A286X7I0).
T2 construct: membrane fractions from guinea-pig brain, cardiac muscle and skeletal muscle; from tissue; host or cells: guinea-pig skeletal muscle membranes
T2 sequence (A0A286X7I0 1-1867): as above
Nature of the data set: Saturation analysis, binding of ^125 I-labelled 1,4-dihydropyridine to skeletal muscle membranes. Also on record: species or system guinea-pig. Particulars: 25° C. As to the method: (§1) Aliquots of the obtained and ^125 I-labelled 1,4-dihydropyridine are dried in a stream of nitrogen, incubated with buffer (50 mM TRIS-HCl, pH 7.4, to which the protease inhibitor phenylmethylsulphonyl fluoride has been added (0.1 mmole/l)) and membrane fractions from guinea-pig brain, cardiac muscle and skeletal muscle (prepared as described in Drug Development 9: 63-98 (1983); Naunyn-Schmiedeberg's Arch. Pharmacol. 321: 80-83 (1983) and FEBS Lett 148: 331-337 (1982)) at 25° C. in 0.1 ml volume until equilibrium is reached, and the specific binding (defined as the difference in the binding of the ^125 I-labelled 1,4-dihydropyridine in the absence and presence of 1 μmole/l of Nimodipin) is measured by means of the filtration technique (to separate bound and free ^125 I-labelled 1,4-dihydropyridine). […] The particle-bound radioactivity retained on the filters was then measured.
(§2) The following formula was used to calculate the concentration of the free ligand: (T. a)-B, where T is the total concentration of the ligand, a is a factor describing the binding capacity of the ligand, and B is the concentration of the specifically bound ligand in equilibrium. The factor a was determined experimentally by saturating the radioactive ligand with binding sites (receptors) (described in FEBS Lett. 148, 331-337, 1982; Naunyn Schmiedeberg's Arch. Pharmacol 321, 7-10, 1982). […]

The nature of data set [3]: Stability of the ^125 I-labelled 1,4-dihydropyridine (HPLC, thin layer chromatography). Type of data set: physicochemical. As to the method: The following formula was used to calculate the concentration of the free ligand: (T. a)-B, where T is the total concentration of the ligand, a is a factor describing the binding capacity of the ligand, and B is the concentration of the specifically bound ligand in equilibrium. The factor a was determined experimentally by saturating the radioactive ligand with binding sites (receptors) (described in FEBS Lett. 148, 331-337, 1982; Naunyn Schmiedeberg's Arch. Pharmacol 321, 7-10, 1982). The factor "a" was 0.5 for the asymmetric 1,4-dihydropyridine derivative, in agreement with the theoretically required capacity of the receptor (R) and (S) to differentiate enantiomers of the ^125 I-labelled 1,4-dihydropyridine (stereospecifity of the binding). The ^125 I-labelled 1,4-dihydropyridine is the racemic mixture of (R) and (S) enantiomers. A dissociation constant of 350 pmole/l (25° C.) was found for muscle membranes (not illustrated). The stability of the ^125 I-labelled 1,4-dihydropyridine was checked under the following conditions by conventional methods (HPLC, thin layeer chromatography): buffer 50 mM TRIS HCl, pH 7.4, 25° C., 4 hours; muscle membrane in buffer, 25° C., 4 hours; as well as storage in benzene or absolute ethanol at -20° C. for up to 21 days after preparation of the ligand. In no case were the radiochemical impurities greater than 10%.

In data set [4] the target is T3, 1,4-dihydropyridine receptors in guinea-pig brain membranes (Cavia porcellus, UniProt O35505).
T3 construct: 1,4-dihydropyridine receptors in guinea-pig brain membranes; from tissue; host or cells: guinea-pig brain membranes
T3 sequence (O35505 whole entry): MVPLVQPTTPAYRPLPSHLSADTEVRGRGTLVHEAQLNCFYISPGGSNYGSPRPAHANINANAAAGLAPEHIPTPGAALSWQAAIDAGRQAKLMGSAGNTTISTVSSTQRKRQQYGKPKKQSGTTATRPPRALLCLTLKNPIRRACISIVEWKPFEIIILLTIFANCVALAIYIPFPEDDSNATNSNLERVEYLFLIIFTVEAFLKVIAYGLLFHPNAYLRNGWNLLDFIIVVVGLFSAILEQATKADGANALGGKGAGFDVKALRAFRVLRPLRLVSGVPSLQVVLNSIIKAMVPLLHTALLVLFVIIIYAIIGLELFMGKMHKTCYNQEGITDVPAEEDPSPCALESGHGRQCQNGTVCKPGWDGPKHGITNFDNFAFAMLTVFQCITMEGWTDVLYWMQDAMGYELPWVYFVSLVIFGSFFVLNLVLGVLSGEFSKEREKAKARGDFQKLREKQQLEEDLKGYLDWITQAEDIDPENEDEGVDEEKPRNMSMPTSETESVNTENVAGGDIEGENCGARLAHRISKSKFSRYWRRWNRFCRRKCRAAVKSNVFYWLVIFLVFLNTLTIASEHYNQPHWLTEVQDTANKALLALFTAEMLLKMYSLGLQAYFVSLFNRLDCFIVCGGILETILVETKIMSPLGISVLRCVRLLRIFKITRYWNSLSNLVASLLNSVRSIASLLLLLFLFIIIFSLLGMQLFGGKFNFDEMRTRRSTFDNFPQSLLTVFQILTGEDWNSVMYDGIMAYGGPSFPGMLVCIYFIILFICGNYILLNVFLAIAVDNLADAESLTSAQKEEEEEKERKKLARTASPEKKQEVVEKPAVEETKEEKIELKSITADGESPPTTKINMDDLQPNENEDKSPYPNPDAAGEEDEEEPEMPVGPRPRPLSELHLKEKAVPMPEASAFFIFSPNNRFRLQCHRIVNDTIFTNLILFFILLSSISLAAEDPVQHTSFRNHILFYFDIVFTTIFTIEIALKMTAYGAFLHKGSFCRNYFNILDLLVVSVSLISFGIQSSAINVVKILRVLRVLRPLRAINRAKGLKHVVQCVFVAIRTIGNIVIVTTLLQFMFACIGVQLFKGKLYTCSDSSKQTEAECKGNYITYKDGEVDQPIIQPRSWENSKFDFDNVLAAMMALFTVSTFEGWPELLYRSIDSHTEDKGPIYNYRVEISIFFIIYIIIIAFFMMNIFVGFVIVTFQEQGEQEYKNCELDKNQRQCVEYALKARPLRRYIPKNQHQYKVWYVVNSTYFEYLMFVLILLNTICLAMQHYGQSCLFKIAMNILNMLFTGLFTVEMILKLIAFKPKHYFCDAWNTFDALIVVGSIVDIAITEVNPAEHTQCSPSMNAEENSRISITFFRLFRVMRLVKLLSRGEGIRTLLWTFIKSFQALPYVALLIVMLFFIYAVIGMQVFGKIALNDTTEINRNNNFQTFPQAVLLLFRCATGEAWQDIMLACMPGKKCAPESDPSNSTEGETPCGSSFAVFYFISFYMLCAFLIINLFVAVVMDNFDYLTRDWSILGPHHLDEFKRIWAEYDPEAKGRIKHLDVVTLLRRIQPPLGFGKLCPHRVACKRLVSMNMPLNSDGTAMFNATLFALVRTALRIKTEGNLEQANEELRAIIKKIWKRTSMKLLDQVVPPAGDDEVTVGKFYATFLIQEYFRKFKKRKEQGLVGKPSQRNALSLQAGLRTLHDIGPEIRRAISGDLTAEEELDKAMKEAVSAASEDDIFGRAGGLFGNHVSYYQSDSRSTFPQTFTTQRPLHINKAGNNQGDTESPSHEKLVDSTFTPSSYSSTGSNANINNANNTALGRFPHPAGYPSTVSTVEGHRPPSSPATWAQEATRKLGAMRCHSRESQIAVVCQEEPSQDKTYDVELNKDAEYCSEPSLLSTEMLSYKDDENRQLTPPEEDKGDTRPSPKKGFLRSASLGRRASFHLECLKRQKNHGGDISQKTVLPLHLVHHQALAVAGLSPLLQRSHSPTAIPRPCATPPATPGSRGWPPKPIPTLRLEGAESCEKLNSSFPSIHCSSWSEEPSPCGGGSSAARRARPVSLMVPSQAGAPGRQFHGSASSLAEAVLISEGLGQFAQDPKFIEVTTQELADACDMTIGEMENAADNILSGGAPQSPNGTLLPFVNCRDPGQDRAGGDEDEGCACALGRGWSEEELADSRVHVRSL
Nature of the data set: Saturation analysis, binding of ^125 I-labelled 1,4-dihydropyridine to brain membranes. Particulars: 25° C., read-out: dissociation constant (conclusion). As to the method:
as §1, §2

Where [5] appears, read: read-out: IC50 (50% inhibition of the specific binding of the ligand in the radioreceptor assay), guinea-pig skeletal muscle membranes, ligand 20-30 pmole/l, 25° C., mean ± asymptotic standard deviation, 3 independent experiments.
Setting [6] is: guinea-pig skeletal muscle membranes, ligand 20-30 pmole/l, 25° C., mean ± asymptotic standard deviation, 3 independent experiments.

For the compound “1,4-dihydro-2,6-dimethyl-4-(2-trifluoromethylphenyl)-3,5-pyridinecarboxylic acid 2-(aminoethyl)ethyl ester [Bay K 8644]”, in data set [1] (setting [5]), the IC50 is 37 ± 5 nM.

On to `COC(=O)C1=C(C)NC(C)=C(C(=O)OC(C)C)C1c1cccc2nonc12` (single isomer, unassigned; (+)) [(+)205-033, isopropyl 4-(2,1,3-benzoxadiazole-4-yl)-1,4-dihydro-2,6-dimethyl-5-methoxycarbonylpyridine-3-carboxylate], for which the IC50 in data set [1] (setting [6]) is 2 ± 0.05 nM.

With `COC(=O)C1=C(C)NC(C)=C(C(=O)OC(C)C)C1c1cccc([N+](=O)[O-])c1` (single isomer, unassigned; (+)) [(+)Bay e 6927, isopropylmethyl 1,4-dihydro-2,6-dimethyl-4-(3-nitrophenyl)-3,5-pyridinedicarboxylate], the IC50 in data set [1] (setting [6]) turned out to be 420 ± 67 nM.

On to `COc1ccc(CCN(C)CCCC(C#N)(c2cc(OC)c(OC)c(OC)c2)C(C)C)cc1OC` (single isomer, unassigned; (+)) [(+)Methoxyverapamil, Methoxyverapamil], for which, in data set [1] (setting [6]), the IC50 was determined as 190 ± 50 nM.

For `COC(=O)C1=C(C)NC(C)=C(C(=O)OCCN(C)Cc2ccccc2)C1c1cccc([N+](=O)[O-])c1` (single isomer, unassigned; (+)) [(+)Nicardipine, 2,6-dimethyl-4-(3 nitrophenyl)-1,4-dihydropyridine-3,5-dicarboxylic acid 3-2(N-benzyl-N-methylamino)-ethylester-5-methylester], in data set [1] (setting [6]), the IC50 was 7 ± 0.8 nM.

`COC(=O)C1=C(C)NC(C)=C(C(=O)OC(C)C)C1c1cccc2nonc12` (single isomer, unassigned; (-)) [(-)205-034, isopropyl 4-(2,1,3-benzoxadiazole-4-yl)-1,4-dihydro-2,6-dimethyl-5-methoxycarbonylpyridine-3-carboxylate]: the IC50 in data set [1] (setting [6]) is 198 ± 40 nM.

Consider `COC(=O)C1=C(C)NC(C)=C(C(=O)OC(C)C)C1c1cccc([N+](=O)[O-])c1` (single isomer, unassigned; (-)) [(-)Bay e 6927, isopropylmethyl 1,4-dihydro-2,6-dimethyl-4-(3-nitrophenyl)-3,5-pyridinedicarboxylate], for which the IC50 in data set [1] (setting [6]) came out at 3 ± 0.04 nM.

For `COC(=O)C1=C(C)NC(C)=C(C(=O)OCCN(C)Cc2ccccc2)C1c1cccc([N+](=O)[O-])c1` (single isomer, unassigned; (-)) [(-)Nicardipine, 2,6-dimethyl-4-(3 nitrophenyl)-1,4-dihydropyridine-3,5-dicarboxylic acid 3-2(N-benzyl-N-methylamino)-ethylester 5-methylester], the IC50 in data set [1] (setting [6]) amounted to 42 ± 3 nM.

On to `COc1ccc(CCN(C)CCC[C@@](C#N)(c2cc(OC)c(OC)c(OC)c2)C(C)C)cc1OC` [(-)Methoxyverapamil, Methoxyverapamil], for which the IC50 in data set [1] (setting [6]) turned out to be 21 ± 8 nM.

On to `CCOC(=O)C1=C(C)NC(C)=C(C(=O)O)C1c1cccc([N+](=O)[O-])c1` (stereo not drawn) [Bay M 5579], for which the IC50 in data set [1] (setting [5]) was determined as 1860 ± 300 nM.

With `CCOC(=O)C1=C(C)NC2=C(C(=O)OC2)C1c1ccccc1OC(F)F` (stereo not drawn) [CGP 28392], the IC50 in data set [1] (setting [6]) was 1250 ± 180 nM.

Consider `CCOC(=O)C1=C(C)NC(C)=C(C(=O)OCCNC(=O)CCc2ccc(O)c([125I])c2)C1c1ccccc1C(F)(F)F` (stereo not drawn) [^125 I-labelled 1,4-dihydropyridine], for which the Kd is 0.35 nM in data set [2] (muscle membranes, read-out: dissociation constant (KD)); less than 1 nM in data set [2] (skeletal muscle membranes, read-out: dissociation constant (conclusion)); less than 1 nM in data set [4]. For the same compound, the “stability (conclusion)” value in data set [3] is given as “sufficient stability”. Moreover, the “radiochemical impurities (stability)” value in data set [3] (50 mM TRIS HCl pH 7.4, 25° C., 4 hours, muscle membrane in buffer, 25° C., storage in benzene or absolute ethanol at -20° C. up to 21 days) is given as no more than 10%.

Consider `COc1ccc([C@@H]2Sc3ccccc3N(CCN(C)C)C(=O)[C@@H]2OC(C)=O)cc1` [d-cis-Diltiazem], for which the EC50 in data set [1] is 960 ± 310 nM.

As to `COc1ccc([C@H]2Sc3ccccc3N(CCN(C)C)C(=O)[C@H]2OC(C)=O)cc1` [l-cis-Diltiazem], the IC50 in data set [1] came out at 3000 ± 1600 nM.
